Experimental data published in US10413562B2, “Compositions and methods for the production of pyrimidine and pyridine compounds with BTK inhibitory activity” (Merck Patent GmbH, priority 2011, dated 2019).

How the values were obtained:
[1] = system: PBMC; experiment: Time dependent PBMC IC50 assay; type: cell-based
Method: Compounds described by embodiments of the present invention were assayed using a time dependent PMBC assay.

[2] = system: NZB/W F1 mice; experiment: Interferon-alpha accelerated systemic lupus erythematosus (SLE) mouse model; type: in vivo; settings: ADV-IFN-alpha accelerated SLE, oral daily 0.1, 0.3, 1 or 3 mg/kg from day 14
Method: 1-(4-(((6-amino-5-(4-phenoxyphenyl)pyrimidin-4-yl)amino)methyl)piperidin-1-yl)prop-2-en-1-one, designated as “CPD. B”, was evaluated in an interferon-alpha accelerated SLE mouse model. NZB/W F1 mice received i.v. injection at day 0 and day 1 of 10^8 infectious units of adenovirus (ADV-IFN-α) to deliver a transient overexpression on interferon alpha. Oral dosing of the different group treatments was initiated on day 14 and continued daily at 24 hour intervals until the end of the study. Treatment groups consisted of 20% Kleptose HPB in Na-citrate buffer (vehicle) or 0.1, 0.3, 1, or 3 mg/kg of Cpd. […] As shown in Panel 1B Cpd. […] FIG. 2 presents data from another interferon-alpha accelerated SLE experiment in mice. NZB/W F1 mice received i.v. injections at day 0 and day 1 of 10^8 infectious units of adenovirus (ADV-IFN-α) to deliver a transient overexpression on interferon alpha. Oral dosing of the different group treatments (n=10) was initiated on day 14 and continued daily at 24 hour intervals until the end of the study. Treatment groups consisted of 20% Kleptose HPB in Na-citrate buffer (vehicle), 0.1, 0.3, 1, or 3 mg/kg of Cpd. B or Cell Cept®. […] Statiscal analysis was performed using Two way ANOVA with Bonferroni post test with all groups compared to vehicle treated group (*=p<0.05, **=p<0.01, ***=p<0.001).

SMILES	IC50 [1]	disease activity [2]
C=CC(=O)N1C2CCC1CC(CNc1ncnc(N)c1-c1ccc(Oc3ccccc3)cc1)C2 (centres unmarked) [Compound A48, 1-(3-(((6-amino-5-(4-phenoxyphenyl)pyrimidin-4-yl)amino)methyl)-8-azabicyclo[3.2.1]octan-8-yl)prop-2-en-1-one]	< 1000 nM	–
C=CC(=O)N1CCC(CNc2ncnc(N)c2-c2ccc(Oc3ccccc3)cc2)CC1 [Cpd. B, 1-(4-(((6-amino-5-(4-phenoxyphenyl)pyrimidin-4-yl)amino)methyl)piperidin-1-yl)prop-2-en-1-one]	–	reduces the disease activity in a dose-dependent manner
